Strand notation (5' to 3'): a small letter for the sugar, then the base; units joined by * are phosphorothioate-linked, units joined directly phosphodiester-linked; [ ] holds rarer units or linkages, { } end groups; capitals alone tell only the bases. [invdT] = inverted (3'-3') thymidine; d = 2'-deoxy (DNA)
Key:
[1] = tested on: Egr-1 mRNA; assay: RT-PCR and Northern blot of Egr-1 mRNA in endothelial cells; format: cell-based, bovine; conditions: growth-quiescent endothelial cells, within 1 h of agonist
Experimental: Northern blot analysis. Total RNA (12 μg/well) of growth-arrested endothelial cells (prepared using TRIzol Reagent (Life Technologies) in accordance with the manufacturer's instructions) previously exposed to various agonists for 1 h was resolved by electrophoresis on denaturing 1% agarose-formialdehyde gels. Following transfer overnight to Hybond-N+ nylon membranes (Amersham), the blots were hybridized with ^32P-labeled Egr-1 cDNA prepared using the Nick Translation Kit overnight (Roche). The membranes were washed and radioactivity visualized by autoradiography as previously described (Khachigian et al., 1995).
RT-PCR. Reverse transcription was performed with 8 μg of total RNA using M-MLV reverse transcriptase. Egr-1 cDNA was amplified (334 bp product (Delbridge, G. J. and Khachigian, L. M. (1997), Circ. Res., 81:282-288)) using Taq polymerase by heating for 1 min at 94° C., and cycling through 94° C. for 1 min, 94° C. for 1 min, 55° C. for 1 min, and 72° C. for 1 min. Following thirty cycles, a 5 min extension at 72° C. was carried out. Samples were electrophoresed on 1.5% agarose gel containing ethidium bromide and photographed under ultraviolet illumination. β-actin amplification (690 bp product) was performed essentially as above. The sequences of the primers were: Egr-1 forward primer (5′-GCA CCC AAC AGT GGC AAC-3′) (SEQ ID NO:18), Egr-1 reverse primer (5′-GGG ATC ATG GGA ACC TGG-3′) (SEQ ID NO: 19), β-actin forward primer (5′-TGACGGGGTCACCCACACTGTGCCCATCTA 3′) (SEQ ID NO:20), and β-actin reverse primer (5′-CTAGAAGCATTTGCGGTGGACGATGGAGGG-3′) (SEQ ID NO:21).

[2] = tested on: Egr-1; assay: Transient transfection CAT reporter assay (pEBS1^3foscat), Egr-1-dependent gene expression; format: cell-based, bovine; conditions: growth-arrested endothelial cells, 24 h; glucose 5 to 30 mM, insulin 100 nM, FGF-2 25 ng/ml
Experimental: Transient transfection analysis and, CAT assay. The endothelial cells were grown to 60-70% confluence in 100 mm. dishes and transiently transfected with 10 μg of the indicated chloramphenicol acetyl transferase (CAT)-based promoter reporter construct using FuGENE6 (Roche). The cells were rendered growth-quiescent by incubation 48 h in 0.25% FBS, and stimulated with various agonists for 24 h prior to harvest and assessment of CAT activity. CAT activity was measured and normalized to the concentration of protein in the lysates (determined by Biorad Protein Assay) as previously described (Khachigian, L. M. and Chesterman, C. N. (1999), Circ. Res., 84:1258-1267).

[3] = tested on: bovine aortic endothelial cells; assay: 3H-thymidine incorporation into DNA, aortic endothelial cells; format: cell-based; conditions: for insulin-inducible DNA synthesis: inhibitor added 2 h before insulin 500 nM, PD98059 10 and 30 μM, wortmannin 0.3 and 1 μM, SB202190 100 and 500 nM; for basal endothelial DNA synthesis: no added insulin, 0.25% serum
Experimental: ^3H-Thymidine incorporation into DNA. Growth-arrested endothelial cells at 90% confluence in 96 well plates were incubated twice with the oligonucleotides prior to the addition of insulin. […] After 18 h of exposure to insulin, the cells were pulsed with 200,000 cpm/well of methyl-3H thymidine (NEN-DuPont) for 6 h.

[4] = tested on: NGFI-A protein; assay: Western blot of NGFI-A protein in SMCs; format: cell-based, rat; conditions: 5% FBS 1 h
Experimental: (§1) Culture conditions and DNAzyme transfection. Primary rat aortic SMCs were obtained from Cell Applications, Inc., and grown in Waymouth's medium, pH 7.4, containing 10% fetal bovine serum (FBS), 50 μg/ml streptomycin and 50 IU/ml penicillin at 37° C. in a humidified atmosphere of 5% CO2 SMCs were used in experiments between passages 3-7. Pup rat SMCs (WKY12-22 (as described in Lernire et al, 1994, the entire contents of which are incorporated herein by reference)) were grown under similar conditions. Subconfluent (60-70%) SMCs were incubated in serum-free medium (SFM) for 6 h prior to DNAzyme (or antisense ODN, where indicated) transfection (0.1 μM) using Superfect in accordance with manufacturer's instructions (Qiagen). After 18 h, the cells were washed with phosphate-buffered saline (PBS), pH 7.4 prior to transfection a second time in 5% FBS.
Western blot analysis. Growth-quiescent SMCs in 100 mm plates (Nunc-InterMed) were transfected with ED5 or ED5SCR as above, and incubated with 5% FBS for 1 h. The cells were washed in cold PBS, pH 7.4, and extracted in 150 mM NaCl, 50 mM Tris-HCI, pH 7.5, […], 0.1% SDS, 1% Triton X-100, 5 mM EDTA, 1% trasylol, 10μ/ml leupeptin, 1% aprotinin and 2 mM PMSF. Twenty four μg protein samples were loaded onto 10% denaturing SDS-polyacrylamide gels and electroblotted onto PVDF nylon membranes (NEN-DuPont). […]

[5] = tested on: EGR-1; assay: Western blot of EGR-1 in HepG2 cells; format: cell-based, human
Chain of EGR-1 (P18146 whole entry): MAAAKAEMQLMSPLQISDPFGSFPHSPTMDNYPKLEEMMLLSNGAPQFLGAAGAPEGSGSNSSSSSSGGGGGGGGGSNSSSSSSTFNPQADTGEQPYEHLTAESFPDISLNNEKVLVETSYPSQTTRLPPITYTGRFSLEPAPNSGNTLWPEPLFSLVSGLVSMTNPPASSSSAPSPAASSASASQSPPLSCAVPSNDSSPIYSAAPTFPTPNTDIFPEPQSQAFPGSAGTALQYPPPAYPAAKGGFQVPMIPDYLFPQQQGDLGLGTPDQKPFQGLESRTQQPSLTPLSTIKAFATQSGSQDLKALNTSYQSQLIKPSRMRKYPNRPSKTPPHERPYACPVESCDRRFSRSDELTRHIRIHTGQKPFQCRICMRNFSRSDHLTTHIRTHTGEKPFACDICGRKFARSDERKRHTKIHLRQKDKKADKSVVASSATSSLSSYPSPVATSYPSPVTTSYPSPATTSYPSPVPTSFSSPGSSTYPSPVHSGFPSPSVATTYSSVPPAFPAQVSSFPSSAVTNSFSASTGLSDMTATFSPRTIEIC

[6] = tested on: Primary rat aortic SMCs; assay: SMC proliferation assay (Coulter counter); format: cell-based
Experimental: as §1, with “Subconfluent (60-70%) SMCs were incubated in serum-free medium (SFM) for 6 h prior to DNAzyme (or antisense ODN, where indicated) transfection (0.1 μM) using Superfect in accordance with manufacturer's instructions (Qiagen).” left out
Assays of cell proliferation. Growth-quiescent SMCs in 96-well titer plates (Nunc-InterMed) were transfected with ED5 or ED5SCR as above, then exposed to 5% FBS at 37° C. for 72 h. The cells were rinsed with PBS, pH 7.4, trypsinized and the suspension was quantitated using an automated Coulter counter.

[7] = tested on: bovine aortic endothelial cells; assay: In vitro injury (scrape) endothelial regrowth; format: cell-based; conditions: for endothelial regrowth stimulated by insulin after injury: 0.8 μM oligonucleotide
Experimental: In vitro injury. Growth-arrested cells at 90% confluence were incubated with antisense oligonucleotides and insulin at various concentrations as described above, then were scraped by drawing a sterile wooden toothpick across the monolayer (Khachigian et al., 1996). Following 48-72 h, the cells were fixed in 4% formalin, stained with hemotoxylin/eosin then photographed.

[8] = tested on: Egr-1 protein; assay: Western blot of Egr-1 protein in endothelial cells; format: cell-based, bovine; conditions: for insulin-inducible Egr-1 protein synthesis: 0.8 μM oligonucleotide
Experimental: Antisense oligonucleotide delivery and Western blot analysis. Growth arrested cells in 100 mm dishes were incubated with the indicated oligonucleotides 24 h and 48 h after the initial change of medium. When oligonucleotide was added a second time, the cells were incubated with various concentrations of insulin and harvest 1 h subsequently. […] Lysates were resolved by electrophoresis on 8% denaturing SDS-polyacrylamide gels, transferred to PDVF nylon membranes (NEN-DuPont), blocked with skim milk powder, then incubated with polyclonal antibodies to Egr-1 (Santa Cruz Biotechnology, Inc) and monoclonal horseradish peroxidase-linked mouse anti-rabbit Ig secondary antibodies followed by chemiluminescent detection (NEN-DuPont).

In the case of CCCCCCCCCCCCCC(=O)O[C@@H]1[C@@H](C)[C@@]2(O)[C@@H](C=C(CO)C[C@]3(O)C(=O)C(C)=C[C@@H]23)[C@@H]2C(C)(C)[C@]12OC(C)=O [PMA, Phorbol-12-myristrate 13-acetate, reference compound], the “Egr-1 mRNA levels” value [1] is reported as “elevated steady-state Egr-1 mRNA levels”.

In the case of O=C[C@H](O)[C@@H](O)[C@H](O)[C@H](O)CO [glucose], the “Egr-1 binding activity (CAT reporter activity)” value (“Egr-1 binding activity” for short) [2] is reported as “did not increase”.

Oc1ccc(-c2nc(-c3ccncc3)c(-c3ccc(F)cc3)[nH]2)cc1 [SB202190, reference compound] was tested, and the “insulin-inducible DNA synthesis” value [3] was “failed to affect DNA synthesis”.

For “EDC: DNAzyme with identical catalytic domain flanked by nonsense arms, 5′-CGCCATTAGGCTAGCTACAACGACCTAGTGAT-3′; 3′T inverted (DNA CGCCATTAGGCTAGCTACAACGACCTAGTGA; DNA, [invdT] at 3' end, backbone not given here)”, the “serum-induction of NGFI-A protein” value [4] was “neither ED5SCR nor EDC, a DNAzyme bearing an identical catalytic domain as ED5 and ED5SCR but flanked by nonsense arms had any influence”.

In the case of fibroblast growth factor-2 [FGF-2], the “Egr-1 binding activity” value [2] is reported as “increased” and the “Egr-1 mRNA levels” value [1] is reported as “elevated steady-state Egr-1 mRNA levels”.

“SEQ ID NO:24: size matched DNAzyme with different sequence, 5′-tcagctgcaGGCTAGCTACAACGActcggcctt (DNA TCAGCTGCAGGCTAGCTACAACGACTCGGCCT; DNA, [invdT] at 3' end, backbone not given here) [reference compound]” was tested, and the “EGR-1 expression in HepG2 cells” value [5] was “no effect”.

“AS2: Phosphorothioate-linked antisense oligonucleotide to translational start site of Egr-1 mRNA, 5′-CsTsTsGsGsCsCsGsCsTsGsCsCsAsT-3′ (DNA dC*dT*dT*dG*dG*dC*dC*dG*dC*dT*dG*dC*dC*dA*dT)” was tested, and the “inhibition of SMC proliferation stimulated by serum” value ([6]; 0.1 μM, 5% FBS, 3 days) was “failed to inhibit proliferation”, the SMC growth ([6]; 1 μM) was “able to inhibit SMC growth” and the “endothelial regrowth stimulated by insulin after injury” value [7] was “significantly inhibited”. The “insulin-inducible 3H-thymidine incorporation” value ([3]; 0.4 μM oligonucleotide (vs 0.8 μM), insulin 500 nM) was “less effectively”, the “DNA synthesis inducible by insulin” value ([3]; 0.8 μM oligonucleotide, insulin 500 nM and 1000 nM) was “significantly inhibited” and the “basal endothelial DNA synthesis” value ([3]; 0.8 μM oligonucleotide) was “inhibited”. For the same compound, the “insulin-inducible Egr-1 protein synthesis” value [8] was “inhibited”.

For “AS2C: size-matched phosphorothioate-linked counterpart of AS2 with similar base composition, 5′-GsCsAsCsTsTsCsTsGsCsTsGsTsCsC-3′ (DNA dG*dC*dA*dC*dT*dT*dC*dT*dG*dC*dT*dG*dT*dC*dC) [reference compound]”, the “endothelial regrowth stimulated by insulin after injury” value [7] was “not significantly different”, the “basal endothelial DNA synthesis” value ([3]; 0.8 μM oligonucleotide) was “little effect” and the “insulin-inducible Egr-1 protein synthesis” value [8] was “lack of attenuation”.

In the case of insulin, the “Egr-1 binding activity” value [2] is reported as “did increase”, the “Egr-1 mRNA levels” value [1] is reported as “elevated steady-state Egr-1 mRNA levels” and the “population of cells in the denuded zone after injury” value ([7]; insulin 500 nM at time of injury, 3 days) is reported as “significantly increased”. The “increase in DNA synthesis” value ([3]; insulin 100 nM) was 100%, the “increase in DNA synthesis” value ([3]; insulin 500 nM) was 200% and the Egr-1 protein synthesis ([8]; insulin 100 nM and 500 nM, within 1 h) was “induced Egr-1 protein synthesis”.

In the case of COc1cccc(-c2cc(=O)c3ccccc3o2)c1N [PD98059, reference compound], the “insulin-inducible DNA synthesis” value [3] is reported as “inhibited insulin-inducible DNA synthesis in a dose-dependent manner”.

Source: patent US20030203864A1, “Treatment of cancer” (priority 2002, published 2003)
